Measurements from US7563793B2, “Pyrrolo[1,2-a]quinoxalin-5-(4H)-yl)sulfonyls and carbonyls and their use as estrogenic agents” (Wyeth, priority 2004, dated 2009).

Key:
IL-6 = IL-6 assay (ELISA) in Ad5-wt-ER infected HAECT-1 cells (IL-1β induced); format: cell-based, human; details: Homo sapiens; for IC50: HAECT1; for Emax: HAECT1, relative to maximal inhibition observed with E2, read-out: IL-6 Efficacy
Experimental: (§1) After four hours, cells were washed with EBM-BSA and incubated overnight in the same medium. […] After two hours, cells were washed and incubated at 34° C. for 1 hour. […] Control (no ER infection) cells were processed as above without Ad5-wt-hERα virus infection. […] Cells were subsequently washed with 300 μl of Dulbecco's phosphate buffered saline and lysed in 50 μl of Cell Culture Lysis Reagent (Promega). Luciferase was determined on a Wallac Victor^2 Luminometer (Gaithersburg, Md.) using 10 μl of lysate and mixing with 100 lμof Promega Luciferase Assay reagent. […] For IC50 and EC50 calculations, mean IL-6, luciferase or CK values versus log10 of the compound concentration were fitted to a four parameter logistic equation. The IC50/EC50 value, ‘Hill slope’, upper and lower limits of the curve were iteratively estimated.

creatine kinase = experiment: Creatine kinase assay in Ad5-wt-ER infected HAECT-1 cells; format: cell-based, human; details: Homo sapiens; for EC50: HAECT1, CK stimulation, N/O = activity not observed at concentrations tested, read-out: CK IC50; for Emax: HAECT1, relative to maximal stimulation observed with E2, read-out: CK Efficacy
Experimental: as §1

Row | IC50 (IL-6) [nM] | EC50 (creatine kinase) [nM] | Compound | Emax (IL-6) [%] | Emax (creatine kinase) [%]
1 | 179 |  | C[C@@H]1c2cccn2-c2ccc(F)cc2N1C(=O)c1cccc(O)c1 [131 (R), 3-{[(4R)-4-methyl-7-fluoropyrrolo[1,2-a]quinoxalin-5(4H)-yl]carbonyl}phenol] | 103 | 
2 | 1460 |  | C[C@H]1c2cccn2-c2ccc(F)cc2N1C(=O)c1cccc(O)c1 [131 (S), 3-{[(4S)-4-methyl-7-fluoropyrrolo[1,2-a]quinoxalin-5(4H)-yl]carbonyl}phenol] | 69 | 
3 | 10 |  | CC1c2cccn2-c2ccc(Br)cc2N1C(=O)c1cccc(O)c1 (stereo not shown) [Example 106, 3-[(7-bromo-4-methylpyrrolo[1,2-a]quinoxalin-5(4H)-yl)carbonyl]phenol] | 54 | 
4 | 369 |  | CCC1c2cccn2-c2ccc(Br)cc2N1C(=O)c1ccc(O)cc1 (stereo not shown) [Example 110, 4-[(7-bromo-4-ethylpyrrolo[1,2-a]quinoxalin-5(4H)-yl)carbonyl]phenol] | 78 | 
5 | 441 |  | CC(C)(C)C1c2cccn2-c2ccc(Br)cc2N1C(=O)c1cccc(O)c1 (stereo not shown) [Example 114, 3-[(7-bromo-4-tert-butylpyrrolo[1,2-a]quinoxalin-5(4H)-yl)carbonyl]phenol] | 38 | 
6 | 207 |  | CC(C)(C)C1c2cccn2-c2ccc(Br)cc2N1C(=O)c1ccc(O)cc1 (stereo not shown) [Example 116, 4-[(7-bromo-4-tert-butylpyrrolo[1,2-a]quinoxalin-5(4H)-yl)carbonyl]phenol] | 90 | 
7 | 64 |  | CC[C@@H]1c2ccc(C#N)n2-c2ccc(F)cc2N1C(=O)c1ccc(O)cc1 [Example 128, (4R)-4-ethyl-7-fluoro-5-(4-hydroxybenzoyl)-4,5-dihydropyrrolo[1,2-a]quinoxaline-1-carbonitrile] | 111 | 

More lines, now with the values behind:

Row | Compound | IC50 (IL-6) [nM] | EC50 (creatine kinase) [nM] | Emax (IL-6) [%] | Emax (creatine kinase) [%]
8 | C[C@H]1c2cccn2-c2ccc(Br)cc2N1C(=O)c1cccc(O)c1 [107 (S), 3-{[(4S)-7-bromo-4-methylpyrrolo[1,2-a]quinoxalin-5(4H)-yl]carbonyl}phenol] | 1060 |  | 66 | 
9 | CC[C@@H]1c2cccn2-c2ccc(Br)cc2N1C(=O)c1ccc(O)cc1 [111 (R), 4-{[(4R)-7-bromo-4-ethylpyrrolo[1,2-a]quinoxalin-5(4H)-yl]carbonyl}phenol] | 46 | 117 | 87 | 40
10 | CC[C@H]1c2cccn2-c2ccc(Br)cc2N1C(=O)c1ccc(O)cc1 [111 (S), 4-{[(4S)-7-bromo-4-ethylpyrrolo[1,2-a]quinoxalin-5(4H)-yl]carbonyl}phenol] | 1090 |  | 65 | 
11 | CC(C)(C)[C@@H]1c2cccn2-c2ccc(Br)cc2N1C(=O)c1cccc(O)c1 [115 (R), 3-{[(4R)-7-bromo-4-tert-butylpyrrolo[1,2-a]quinoxalin-5(4H)-yl]carbonyl}phenol] | 647 |  | 82 | 
12 | CC(C)(C)[C@H]1c2cccn2-c2ccc(Br)cc2N1C(=O)c1cccc(O)c1 [115 (S), 3-{[(4S)-7-bromo-4-tert-butylpyrrolo[1,2-a]quinoxalin-5(4H)-yl]carbonyl}phenol] | 455 |  | 94 | 
13 | CC[C@@H]1c2cccn2-c2ccc(F)cc2N1C(=O)c1ccc(O)cc1 [119 (R), 4-{[(4R)-4-ethyl-7-fluoropyrrolo[1,2-a]quinoxalin-5(4H)-yl]carbonyl}phenol] | 8 | 11 | 95 | 27
14 | CC[C@H]1c2cccn2-c2ccc(F)cc2N1C(=O)c1ccc(O)cc1 [119 (S), 4-{[(4S)-4-ethyl-7-fluoropyrrolo[1,2-a]quinoxalin-5(4H)-yl]carbonyl}phenol] | 101 |  | 79 | 
15 | C[C@H]1c2cccn2-c2ccc(F)cc2N1C(=O)c1ccc(O)cc1 [123 (S), 4-{[(4S)-7-fluoro-4-methylpyrrolo[1,2-a]quinoxalin-5(4H)-yl]carbonyl}phenol] | 606 |  | 47 | 
